Test results: patent US8669291B2, “Phenyl substituted cycloalkylamines as monoamine reuptake inhibitors” (Sunovion Pharmaceuticals Inc., priority 2007, dated 2014)

What was measured:
Format in all cases: in vivo
reserpinized rat = test: reserpine-treated rat Parkinson's disease model
Procedure: The effects of compound 4 alone and in combination with L-DOPA were evaluated in the reserpine-treated rat Parkinson's disease model. The method, which detects antiparkinson activity (reversal of motor deficits and akinesia), follows that described by Johnston et al. (Exp Neurol, 191, 243-250, 2005). Eighteen hours prior to behavioural testing, rats were lightly anaesthetized with isoflurane and reserpine (3 mg/kg, sc) was injected along with saline (50 ml/kg) to prevent dehydration.
Accelerating Rotarod: Performance on an accelerating rotarod was assessed using a 4-station rat rotarod (MedAssociates, USA). The speed of rotation of the rotarod was increased from 3.5 to 35 rpm over 5 minutes and the time for which the animal remained on the rod determined as the mean of three trials.
Catalepsy Test: Catalepsy was assessed by placing the rat's forepaws on top of a horizontal wooden rod suspended 6 cm above the bench surface. Time taken to remove both paws from the rod was recorded, up to a maximum of 120 seconds. Three trials per animal were conducted.
Open Field: Activity in an open field arena was assessed using automated activity monitors (Linton Instrumentation, UK). Rats were placed in the activity boxes and locomotor activity was recorded over a 240 minute period.
Drug Administration: For the monotherapy experiment, the effects of 5 different treatments were assessed: 1) vehicle (sterile water, PO), 2) 3 mg/kg compound 4 (PO), 3) 10 mg/kg compound 4 (PO), 4) 30 mg/kg compound 4 and 5) 80 mg/kg (IP) of the positive reference substance, L-DOPA (80 mg/kg). In the combination experiment, 5 different treatments were assessed: 1) compound 4 vehicle (PO)+L-DOPA vehicle (IP), 2) compound 4 (10 mg/kg, PO)+L-DOPA vehicle (IP), 3) compound 4 vehicle (PO)+L-DOPA (30 mg/kg, IP), 4) compound 4 (10 mg/kg, PO)+L-DOPA (30 mg/kg, IP) and 5) compound 4 vehicle (PO)+L-DOPA (80 mg/kg, IP). Treatments were given in a randomized fashion and each animal received all treatment conditions. Compound 4 was administered 60 minutes prior to behavioral assessment and L-DOPA was administered immediately prior to behavioral testing.

rats [1] = test: Rat Locomotor Activity; conditions: PO
Procedure: In order to ensure effects of the compounds on immobility time were not related to a general stimulant effect on baseline motor activity, locomotor activity was assessed using photocell monitored cages (Med-Associates Inc.). Each test chamber was equipped with infrared photocell beams to measure movement of the animals. Horizontal and vertical activity were measured.
Rats or mice were pretreated with vehicle or test compounds and placed back in home cage, following which they were individually placed in locomotor cages and activity was monitored in 1-5 minute intervals for intervals up to 60 min.
Data were analyzed by one way analysis of variance (ANOVA) followed by post-hoc comparisons where appropriate. An effect was considered significant if p<0.05. Data are represented as the mean and standard error to the mean (s.e.m).

rats [2] = test: Rat Forced Swim Test; conditions: PO
Description: The method, which detects antidepressant activity, followed that described by Porsolt et al (Eur. J. Pharmacol., 47: 379-391 (1978)) and modified by Lucki et al. (Psychopharm, 121: 66-72 (1995)). Rats forced to swim in a situation from which they cannot escape rapidly become immobile. Antidepressants decrease the duration of immobility. […] Selective NE reuptake inhibitors decrease immobility by increasing climbing behaviors whereas selective 5-HT reuptake inhibitors decrease immobility by increasing swimming behaviors.
Rats were individually placed in a cylinder (Height=40 cm; Diameter=20 cm) containing 22 cm water (25° C.) for 15 minutes on the first day of the experiment (Session 1) and were then put back in the water 24 hours later for a 5 minute test (Session 2). The sessions were videotaped and duration of immobility as well as swimming and climbing behaviors during the 5 minute test were measured. Twelve rats were tested in each group. The test was performed blind. Compounds were typically evaluated at 3 doses (1-30 mg/kg), administered orally 2 times: 24 hours and 30-60 minutes before the test (Session 2), and compared with a vehicle control group. Desipramine (20 mg/kg i.p.), administered under the same experimental conditions, was used as the positive reference substance.
Data were analyzed by one way analysis of variance (ANOVA) followed by post-hoc comparisons where appropriate. An effect will be considered significant if p<0.05. Data are represented as the mean and standard error to the mean (s.e.m.).

Structure (SMILES)	effects of combination with low dose L-DOPA compared with higher L-DOPA dose (80 mg/kg), rotarod (reserpinized rat; 10 mg/kg, PO + L-DOPA 30 mg/kg, FIG. 5)	baseline locomotor activity (open field) performance (reserpinized rat; alone, 3-30 mg/kg, PO, FIG. 2)	rotarod performance (reserpinized rat; alone, 3-30 mg/kg, PO, FIG. 3)	catalepsy performance (reserpinized rat; alone, 3-30 mg/kg, PO, FIG. 4)	Rat Locomotor Activity Total Distance Traveled ± S.E.M. (rats [1]; 1 mg/kg)	Rat Locomotor Activity Total Distance Traveled ± S.E.M. (rats [1]; 3 mg/kg)	Rat Locomotor Activity Total Distance Traveled ± S.E.M. (rats [1]; 10 mg/kg)	Rat Forced Swim (Means ± S.E.M.) Climbing (rats [2]; 1 mg/kg)	Rat Forced Swim (Means ± S.E.M.) Immobility (rats [2]; 1 mg/kg)	Rat Forced Swim (Means ± S.E.M.) Swimming (rats [2]; 1 mg/kg)	Rat Forced Swim (Means ± S.E.M.) Climbing (rats [2]; 3 mg/kg)	Rat Forced Swim (Means ± S.E.M.) Immobility (rats [2]; 3 mg/kg)	Rat Forced Swim (Means ± S.E.M.) Swimming (rats [2]; 3 mg/kg)	Rat Forced Swim (Means ± S.E.M.) Climbing (rats [2]; 10 mg/kg)	Rat Forced Swim (Means ± S.E.M.) Immobility (rats [2]; 10 mg/kg)	Rat Forced Swim (Means ± S.E.M.) Swimming (rats [2]; 10 mg/kg)
CNC[C@@H]1CCCC[C@@]1(O)c1ccc(Cl)c(Cl)c1 [Compound 4]	equal in magnitude and of longer duration	dose-dependently improved performance	dose-dependently improved performance	dose-dependently improved performance	–	–	–	–	–	–	–	–	–	–	–	–
CN(C)C[C@@H]1CCCC[C@@]1(O)c1ccc(Cl)c(Cl)c1 (single isomer, unassigned) [Compound 2, cis-1-(3,4-dichlorophenyl)-2-((dimethylamino)methyl)cyclohexanol]	–	–	–	–	° (100-2500 (°))	° (100-2500 (°))	°°° (>5001 (°°°))	## (11-20 (##))	+++ (>41 (+++))	* (1-5 (*))	# (1-10 (#))	+++ (>41 (+++))	* (1-5 (*))	### (>21 (###))	+ (1-20 (+))	** (6-9 (**))
